The target in the assay is 3-beta-hydroxysteroid-Delta(8),Delta(7)-isomerase (Homo sapiens, UniProt Q15125). As to the kind of experiment: Binding affinity to emopamil binding protein.
3-beta-hydroxysteroid-Delta(8),Delta(7)-isomerase, sequence (Q15125 whole entry): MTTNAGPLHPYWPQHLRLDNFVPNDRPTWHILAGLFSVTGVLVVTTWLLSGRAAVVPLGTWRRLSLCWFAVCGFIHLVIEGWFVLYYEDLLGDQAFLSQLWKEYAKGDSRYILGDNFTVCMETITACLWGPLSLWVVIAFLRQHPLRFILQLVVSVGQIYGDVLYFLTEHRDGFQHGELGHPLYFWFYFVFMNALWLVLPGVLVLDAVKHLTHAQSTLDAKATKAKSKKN

By Ki is commonly meant a dissociation constant, usually derived from enzyme kinetics or from competition with a known ligand. High values mean lower affinity, low ones higher affinity. Consider `COc1cc(CCN2CCN(CCCc3ccccc3)CC2)ccc1O[11CH3]`, for which the Ki turned out to be 1.72 nM.

(Values after ChEMBL document CHEMBL1772977, “Synthesis and biological evaluation of novel 4-benzylpiperazine ligands for sigma-1 receptor imaging” (Bioorg Med Chem, 2011).)
